Results reported in patent publication US20140206608A1 (priority 2012, published 2014).
pEC50: −log10 of the molar value. Converted amounts (≈) assume the structure as drawn. Read-outs that look alike come from different tables or passages of the source. *1 amine or outer side, *2 acyl side, *3 side chain or, on linkers, in order; H or OH if unused. Where a SMILES comes first, the peptide text is derived from it. Side-chain parts run from the residue outwards. [ ]: non-standard residue; d: D form. The star is where a group is joined. γGlu = O=C(O)[C@H](CCC(=O)[*:2])N[*:1]; Stearoyl = CCCCCCCCCCCCCCCCCC(=O)*; Aib = CC(C)(N)C(=O)O

What was measured:
[1] = target: T1, human glucagon receptor (hGLUC R) (Homo sapiens, UniProt P47871); assay: cAMP response of HEK-293 cells stably expressing human glucagon receptor (HTRF); type: cell-based; details: Table 7, cAMP formation
T1 construct: expressed in transfected cells; host or cells: HEK-293
Description: (§1) cAMP content of cells was determined using a kit from Cisbio Corp. (cat. no. 62AM4PEC) based on HTRF (Homogenous Time Resolved Fluorescence). For preparation, cells were split into T175 culture flasks and grown overnight to near confluency in medium (DMEM/10% FBS). Medium was then removed and cells washed with PBS lacking calcium and magnesium, followed by proteinase treatment with accutase (Sigma-Aldrich cat. no. A6964). Detached cells were washed and resuspended in assay buffer (1×HBSS; 20 mM HEPES, 0.1% BSA, 2 mM IBMX) and cellular density determined. They were then diluted to 400000 cells/ml and 25 μl-aliquots dispensed into the wells of 96-well plates. For measurement, 25 μl of test compound in assay buffer was added to the wells, followed by incubation for 30 minutes at room temperature.

[2] = Chemical stability in solution, 7 days at 25° C. (% remaining peptide); type: physicochemical; details: % remaining peptide after 7 days at 25° C., pH 7.4
Source text: The chemical stability is expressed as “% remaining peptide”.

[3] = Solubility testing in buffer systems (HPLC-UV); type: physicochemical; details: buffer system, target concentration 1.0 mg/mL
[4] = target: T2, human GIP receptor (hGIP R) (Homo sapiens, UniProt P48546); assay: cAMP response of HEK-293 cells stably expressing human GIP receptor (HTRF); type: cell-based
T2 construct: expressed in transfected cells; host or cells: HEK-293
T2 sequence (P48546 22-466): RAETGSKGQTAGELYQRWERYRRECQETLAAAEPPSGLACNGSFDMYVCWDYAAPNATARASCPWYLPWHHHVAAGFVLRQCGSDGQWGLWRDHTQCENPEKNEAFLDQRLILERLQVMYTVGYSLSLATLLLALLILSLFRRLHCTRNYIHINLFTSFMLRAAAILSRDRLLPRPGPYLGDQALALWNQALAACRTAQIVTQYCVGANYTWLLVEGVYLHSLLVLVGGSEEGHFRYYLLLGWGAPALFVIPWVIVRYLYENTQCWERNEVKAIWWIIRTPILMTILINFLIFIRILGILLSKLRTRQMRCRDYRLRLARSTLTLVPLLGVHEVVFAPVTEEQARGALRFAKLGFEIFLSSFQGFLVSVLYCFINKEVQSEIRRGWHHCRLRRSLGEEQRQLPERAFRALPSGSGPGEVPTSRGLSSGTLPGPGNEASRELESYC
Description: as §1

[5] = tested on: non-fasted female diabetic dbdb-mice; assay: Glucose lowering in non-fasted female diabetic dbdb-mice; type: in vivo; details: 3 μg/kg s.c.
Source text: Female diabetic dbdb-mice of mean non-fasted glucose value of 20-22 mmol/l and a body weight of 42 g+/−0.6 g (SEM) were used. Mice were individually marked and were adapted to housing conditions for at least one week.
3-5 days prior to study start mice were assigned to groups and cages (4 mice per cage, 8 per group) according to their non-fasted glucose values to ensure even distribution of lower and higher values between groups (stratification). On the study day, mice were weighed and dosed (t=0). Immediately prior to compound administration feed was removed while water remained available, and a first blood sample at a tail incision was drawn (baseline). Further blood samples were drawn at the tail incision at 30, 60, 90, 120, 240, 360, and 480 min.
Statistical analyses are performed with Everstat Version 6.0 based on SAS by 2-way-ANOVA on repeated measures, followed by Dunnett's post-hoc test against vehicle-control. Differences are considered statistically significant at the p<0.05 level.
Female dbdb-mice, received 3 μg/kg of SEQ ID NO: 13 or phosphate buffered saline (vehicle control) subcutaneously, at time 0 min.

[6] = target: T3, human GLP-1 receptor (hGLP-1 R) (Homo sapiens, UniProt P43220); assay: cAMP response of HEK-293 cells stably expressing human GLP-1 receptor (HTRF); type: cell-based; details: Table 7, cAMP formation
T3 construct: expressed in transfected cells; host or cells: HEK-293
Description: as §1

[7] = target: human GLP-1 receptor (human) (UniProt P43220); assay: cell-based or functional assay
[8] = target: T4, human GIP receptor (human) (UniProt P48546); assay: cell-based or functional assay
T4 sequence (looked up): T2 sequence (P48546 22-466)

T3 sequence (P43220 24-463): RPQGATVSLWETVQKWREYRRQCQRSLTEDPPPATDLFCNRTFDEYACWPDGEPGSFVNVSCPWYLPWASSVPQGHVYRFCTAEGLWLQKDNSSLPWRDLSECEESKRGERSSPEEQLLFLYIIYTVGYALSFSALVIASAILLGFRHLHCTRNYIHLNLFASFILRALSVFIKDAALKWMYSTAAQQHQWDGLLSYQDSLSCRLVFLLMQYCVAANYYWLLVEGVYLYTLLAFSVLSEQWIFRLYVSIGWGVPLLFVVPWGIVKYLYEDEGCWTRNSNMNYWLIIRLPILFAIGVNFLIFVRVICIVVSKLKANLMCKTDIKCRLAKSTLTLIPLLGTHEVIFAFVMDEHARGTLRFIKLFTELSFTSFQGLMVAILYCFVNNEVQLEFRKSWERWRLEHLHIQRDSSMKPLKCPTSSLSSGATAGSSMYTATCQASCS
T1 sequence (P47871 26-477): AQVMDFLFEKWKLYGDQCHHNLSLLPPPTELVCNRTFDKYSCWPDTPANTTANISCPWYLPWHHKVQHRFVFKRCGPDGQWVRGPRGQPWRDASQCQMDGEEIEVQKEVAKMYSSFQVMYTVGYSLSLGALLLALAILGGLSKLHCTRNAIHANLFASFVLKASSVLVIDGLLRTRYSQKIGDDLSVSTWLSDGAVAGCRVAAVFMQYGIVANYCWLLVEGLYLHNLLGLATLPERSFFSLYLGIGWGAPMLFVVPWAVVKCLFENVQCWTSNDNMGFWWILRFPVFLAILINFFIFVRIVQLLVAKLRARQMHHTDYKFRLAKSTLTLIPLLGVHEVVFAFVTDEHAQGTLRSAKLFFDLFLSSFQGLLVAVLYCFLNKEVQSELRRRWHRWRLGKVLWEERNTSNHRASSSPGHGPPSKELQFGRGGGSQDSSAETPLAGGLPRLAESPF
Sequence of human GLP-1 receptor (human) (P43220 24-463): as the sequence (P43220 24-463) above

For `CCCCCCCCCCCCCCCCCC(=O)N[C@@H](CCC(=O)NCCCC[C@H](NC(=O)[C@H](CCC(N)=O)NC(=O)[C@@H](NC(=O)[C@H](CO)NC(=O)[C@H](CC(C)C)NC(=O)[C@H](CC(=O)O)NC(=O)[C@H](CO)NC(=O)[C@@H](NC(=O)[C@H](Cc1ccccc1)NC(=O)[C@@H](NC(=O)CNC(=O)[C@H](CCC(=O)O)NC(=O)C(C)(C)NC(=O)[C@@H](N)Cc1ccc(O)cc1)[C@@H](C)O)[C@@H](C)O)[C@@H](C)CC)C(=O)N[C@@H](CCC(=O)O)C(=O)N[C@@H](CCCCN)C(=O)N[C@@H](CCC(=O)O)C(=O)N[C@@H](C)C(=O)N[C@H](C(=O)N[C@@H](CCCNC(=N)N)C(=O)N[C@@H](CC(C)C)C(=O)N[C@@H](Cc1ccccc1)C(=O)N[C@H](C(=O)N[C@@H](CCC(=O)O)C(=O)N[C@@H](Cc1c[nH]c2ccccc12)C(=O)N[C@@H](CC(C)C)C(=O)N[C@@H](CCCCN)C(=O)N[C@@H](C)C(=O)NCC(=O)NCC(=O)N1CCC[C@H]1C(=O)N[C@@H](CO)C(=O)N[C@@H](CO)C(=O)NCC(=O)N[C@@H](C)C(=O)N1CCC[C@H]1C(=O)N1CCC[C@H]1C(=O)N1CCC[C@H]1C(=O)N[C@@H](CO)C(N)=O)[C@@H](C)CC)C(C)C)C(=O)O` [SEQ ID NO: 13, Y-Aib-E-G-T-F-T-S-D-L-S-I-Q-K(γE-x70)-EKEAVRLFIEWLKAGGPSSGAPPPS-NH2] (H-Y[Aib]EGTFTSDLSIQK([γGlu-Stearoyl])EKEAVRLFIEWLKAGGPSSGAPPPS-NH2), the pEC50 ([1]; read-out: EC50 hGLUC R) was 6.70, the “Stability (pH 7.4)” value [2] was 84.0% and the solubility at 2 h ([3]; pH 4.5, read-out: Solubility (pH 4.5)) was 688 µg/mL (≈ 150 µM). The solubility at 2 h ([3]; pH 7.4, read-out: Solubility (pH 7.4)) was 824 µg/mL (≈ 180 µM), the pEC50 ([4]; Table 7, cAMP formation, read-out: EC50 hGIP R) was 10.77 and the “maximal effect, glucose reduction” value ([5]; at 240 min, kept to 480 min, baseline 20-22 mmol/l) was roughly 12 mmol/L. The “reduction of glucose compared to vehicle control” value ([5]; from t=90 min until end of observation, p<0.05) was “statistical significant reduction of glucose” and the pEC50 ([6]; read-out: EC50 hGLP-1 R) was 10.67.
Compound `CCCCCCCCCCCCCCCCCC(=O)N[C@@H](CCC(=O)NCCCC[C@H](NC(=O)[C@H](CCC(N)=O)NC(=O)[C@@H](NC(=O)[C@H](CO)NC(=O)[C@H](CC(C)C)NC(=O)[C@H](CC(=O)O)NC(=O)[C@H](CO)NC(=O)[C@@H](NC(=O)[C@H](Cc1ccccc1)NC(=O)[C@@H](NC(=O)CNC(=O)[C@H](CCC(=O)O)NC(=O)C(C)(C)NC(=O)[C@@H](N)Cc1ccc(O)cc1)[C@@H](C)O)[C@@H](C)O)[C@@H](C)CC)C(=O)N[C@@H](CCC(=O)O)C(=O)N[C@@H](CCC(=O)O)C(=O)N[C@@H](CCC(=O)O)C(=O)N[C@@H](C)C(=O)N[C@H](C(=O)N[C@@H](CCCNC(=N)N)C(=O)N[C@@H](CC(C)C)C(=O)N[C@@H](Cc1ccccc1)C(=O)N[C@H](C(=O)N[C@@H](CCC(=O)O)C(=O)N[C@@H](Cc1c[nH]c2ccccc12)C(=O)N[C@@H](CC(C)C)C(=O)N[C@@H](CCCCN)C(=O)NC(C)(C)C(=O)NCC(=O)NCC(=O)N1CCC[C@H]1C(=O)N[C@@H](CO)C(=O)N[C@@H](CO)C(=O)NCC(=O)N[C@@H](C)C(=O)N1CCC[C@H]1C(=O)N1CCC[C@H]1C(=O)N1CCC[C@H]1C(=O)N[C@@H](CO)C(N)=O)[C@@H](C)CC)C(C)C)C(=O)O` [SEQ ID NO: 9, Y-Aib-E-G-T-F-T-S-D-L-S-I-Q-K(γE-x70)-E-E-E-A-V-R-L-F-I-E-W-L-K-Aib-G-G-P-S-S-G-A-P-P-P-S-NH2] has a pEC50 ([1]; EC50 hGLUC R) of 6.79, a pEC50 [4] of 10.84 and a pEC50 ([6]; EC50 hGLP-1 R) of 10.57.
Tyr(1)Ile(12)-exendin-4 (peptide) gave an EC50 hGLP-1 R [pM] (formed cAMP) [7] of 1.3 pM and an EC50 hGIP R [pM] (formed cAMP) [8] of 93.9 pM.
